Experimental data from the CheMixHub ionic liquid set.
± gives the uncertainty stated by the source.

Assay: xn = mol fraction of the nth substance listed
Details: for electrical conductivity: 308.15 K, x2 = 0, x3 = 0

C1COCCO1 + CC[n+]1ccn(C)c1.F[B-](F)(F)F
100 kPa, x1 = 1
Details	viscosity [mPa·s]
323.15 K	0.814 ± 0.082
343.15 K	0.64 ± 0.064

O + C[C@@H](O)[C@H](N)C(=O)O + CCCCCCCCCCCCCCCC[n+]1ccccc1.[Cl-]
Details	electrical conductivity [S/m]
101 kPa	6.7e-05 ± 1e-06

CC[n+]1ccn(C)c1.N#C[N-]C#N + CCO + O
viscosity [mPa·s], 101 kPa
Details	298.15 K	313.15 K	328.15 K	343.15 K
x2 = 0.0957, x3 = 0.7595	3.15 ± 0.13	2.21 ± 0.09	–	–
x2 = 0.1156, x3 = 0.8359	2.25 ± 0.09	1.52 ± 0.06	–	–
x2 = 0.1191, x3 = 0.3486	6.67 ± 0.27	4.77 ± 0.2	3.64 ± 0.15	2.85 ± 0.12
x2 = 0.2007, x3 = 0.7083	2.87 ± 0.12	2 ± 0.08	1.42 ± 0.06	1.08 ± 0.04
x2 = 0.2484, x3 = 0.6015	3.39 ± 0.14	2.36 ± 0.1	1.74 ± 0.07	1.34 ± 0.06
x2 = 0.2507, x3 = 0.6986	2.65 ± 0.11	1.76 ± 0.07	1.25 ± 0.05	0.94 ± 0.04
x2 = 0.2881, x3 = 0.404	4.63 ± 0.19	3.33 ± 0.14	2.52 ± 0.11	2.02 ± 0.08
x2 = 0.379, x3 = 0.1385	5.89 ± 0.25	4.31 ± 0.18	3.3 ± 0.14	2.63 ± 0.11
x2 = 0.4202, x3 = 0.3032	4 ± 0.17	2.92 ± 0.12	2.23 ± 0.1	1.77 ± 0.08
x2 = 0.4889, x3 = 0.4093	2.77 ± 0.12	1.95 ± 0.08	–	–
x2 = 0.6949, x3 = 0.2046	2.27 ± 0.1	–	–	–

O + NCC(=O)O + CCCCCCCCCCCCCCCC[n+]1ccccc1.[Cl-]
Details	electrical conductivity [S/m]
101 kPa	6.7e-05 ± 1e-06
